The record followed here is paper PMC3634466, “Cantharidin Impedes Activity of Glutathione S-Transferase in the Midgut of Helicoverpa armigera Hübner” (International Journal of Molecular Sciences, 2013).

The target of assay [1] is T1, HaGST (recombinant rHaGST, delta-class glutathione S-transferase; GenBank EF033109 / ABK40535) (Helicoverpa armigera, UniProt A0MSN0).
T1 sequence (A0MSN0 1-220): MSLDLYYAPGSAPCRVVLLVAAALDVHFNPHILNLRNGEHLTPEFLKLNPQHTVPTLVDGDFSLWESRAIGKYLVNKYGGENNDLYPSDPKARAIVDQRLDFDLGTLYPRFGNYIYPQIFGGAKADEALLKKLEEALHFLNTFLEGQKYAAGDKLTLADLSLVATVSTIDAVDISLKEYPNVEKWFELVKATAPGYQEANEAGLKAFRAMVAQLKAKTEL

Assay [2] has as its target T1, HaGST (recombinant rHaGST, delta-class glutathione S-transferase; GenBank EF033109 / ABK40535). As to the kind of experiment: GSH/CDNB conjugation assay at […] nm with purified rHaGST; Lineweaver-Burk plot. The format is biochemical. Set-up: His-tagged full-length rHaGST expressed from pET-28a in E. coli BL-21 (DE-3), Ni-NTA purified; 220 residues.

For the molecule `N[C@@H](CCC(=O)N[C@@H](CS)C(=O)NCC(=O)O)C(=O)O` [GSH, glutathione], the “enzyme kinetics of purified rHaGST with variable GSH (Lineweaver-Burk), CDNB as” value in assay [1] was “the rHaGST activity was calculated under different concentrations of GSH”. By IC50 is commonly meant the concentration needed to halve the response being measured. Regarding `C[C@@]12C(=O)OC(=O)[C@]1(C)[C@H]1CC[C@@H]2O1` [cantharidin], in assay [2], the IC50 came out at 12.5 µM.
